Measured values: PubChem BioAssay AID1918952 (Molecular Pharmacology Branch, DTP, NCI, 2023)
Where “and” joins values, the source holds several entries; their conditions need not be identical. Equal values may be shown once.

System: LG0703-F948-PDC complex spheroid viability
Assay: Anticancer human tumor LG0703-F948-PDC patient-derived lung adenocarcinoma cell line growth inhibition
Conditions: for viability, T/C: stronger effect = lower value; active = viability on the fitted dose curve at most 10% of control; inactive = the rest
Outline: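 Multicellular complex spheroids of tumor cells with human endothelial cells (HUVEC) and mesenchymal stem cells; the LSD1 inhibitor iadademstat was combined with standard-of-care or investigational agents. Top concentration at or near clinical Cmax, half-log dilutions; final DMSO ≤0.25%.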

[1] = curve of first compound, second compound 0.1 µM
[2] = curve of first compound, second compound 0.316 µM
[3] = curve of first compound, second compound 1 µM
[4] = curve of first compound, second compound 3.16 µM
[5] = curve of first compound, second compound 10 µM
[6] = second compound 0.1 µM, first compound 0.0316 µM
[7] = second compound 0.1 µM, first compound 0.1 µM
[8] = second compound 0.1 µM, first compound 0.316 µM
[9] = second compound 0.1 µM, first compound 1 µM
[10] = second compound 0.1 µM, first compound 3.16 µM
[11] = second compound 0.1 µM, first compound 10 µM
[12] = second compound 0.316 µM, first compound 0.0316 µM
[13] = second compound 0.316 µM, first compound 0.1 µM
[14] = second compound 0.316 µM, first compound 0.316 µM
[15] = second compound 0.316 µM, first compound 1 µM
[16] = second compound 0.316 µM, first compound 3.16 µM
[17] = second compound 0.316 µM, first compound 10 µM
[18] = second compound 1 µM, first compound 0.0316 µM
[19] = second compound 1 µM, first compound 0.1 µM
[20] = second compound 1 µM, first compound 0.316 µM
[21] = second compound 1 µM, first compound 1 µM
[22] = second compound 1 µM, first compound 3.16 µM
[23] = second compound 1 µM, first compound 10 µM
[24] = second compound 3.16 µM, first compound 0.0316 µM
[25] = second compound 3.16 µM, first compound 0.1 µM
[26] = second compound 3.16 µM, first compound 0.316 µM
[27] = second compound 3.16 µM, first compound 1 µM
[28] = second compound 3.16 µM, first compound 3.16 µM
[29] = second compound 3.16 µM, first compound 10 µM
[30] = second compound 10 µM, first compound 0.0316 µM
[31] = second compound 10 µM, first compound 0.1 µM
[32] = second compound 10 µM, first compound 0.316 µM
[33] = second compound 10 µM, first compound 1 µM
[34] = second compound 10 µM, first compound 3.16 µM
[35] = second compound 10 µM, first compound 10 µM
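Note: spheroids exposed to agents for seven days before readout.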
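Throughout, for viability, T/C: 100% = DMSO vehicle control wells as normalization base.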

CC1COCCN1c1cc(C2(S(C)(=N)=O)CC2)nc(-c2ccnc3[nH]ccc23)n1 (configuration not stated) + NC1CCC(NC2CC2c2ccccc2)CC1
4930 nM: IC50 [4]
5730 nM: IC50 [3]
4800 nM: IC50 [2]
inactive: viability, T/C [6] 107% | viability, T/C [7] 108% | viability, T/C [8] 103% | viability, T/C [9] 94.4% | viability, T/C [10] 64% | viability, T/C [11] 28.4% | viability, T/C [12] 111% | viability, T/C [13] 112% | viability, T/C [14] 94.8% | viability, T/C [15] 96.3% | viability, T/C [16] 59.5% | viability, T/C [17] 30% | viability, T/C [18] 113% | viability, T/C [19] 104% | viability, T/C [20] 99.6% | viability, T/C [21] 100% | viability, T/C [22] 77.5% | viability, T/C [23] 23.8% | viability, T/C [24] 122% | viability, T/C [25] 118% | viability, T/C [26] 117% | viability, T/C [27] 96.4% | viability, T/C [28] 66% | viability, T/C [29] 25.5% | viability, T/C [30] 131% | viability, T/C [31] 129% | viability, T/C [32] 110% | viability, T/C [33] 88.1% | viability, T/C [34] 63.8% | viability, T/C [35] 14.2%
4990 nM: IC50 [1]
4130 nM: IC50 [5]

Nc1ccn(C2OC(CO)C(O)C2(F)F)c(=O)n1 (configuration not stated) + NC1CCC(NC2CC2c2ccccc2)CC1
3.35 nM: IC50 [1]
inactive: viability, T/C (second compound 0.1 µM, first compound 0.000949 µM) 68.9% | viability, T/C (second compound 0.1 µM, first compound 0.003 µM) 50.5% | viability, T/C (second compound 0.1 µM, first compound 0.00949 µM) 41.8% | viability, T/C (second compound 0.1 µM, first compound 0.03 µM) 44% | viability, T/C (second compound 0.1 µM, first compound 0.0949 µM) 39.1% | viability, T/C (second compound 0.1 µM, first compound 0.3 µM) 36.8% | viability, T/C (second compound 0.316 µM, first compound 0.000949 µM) 67.5% | viability, T/C (second compound 0.316 µM, first compound 0.003 µM) 52.3% | viability, T/C (second compound 0.316 µM, first compound 0.00949 µM) 45.3% | viability, T/C (second compound 0.316 µM, first compound 0.03 µM) 41.1% | viability, T/C (second compound 0.316 µM, first compound 0.0949 µM) 44.2% | viability, T/C (second compound 0.316 µM, first compound 0.3 µM) 38.6% | viability, T/C (second compound 1 µM, first compound 0.000949 µM) 74.6% | viability, T/C (second compound 1 µM, first compound 0.003 µM) 56.1% | viability, T/C (second compound 1 µM, first compound 0.00949 µM) 55% | viability, T/C (second compound 1 µM, first compound 0.03 µM) 46.4% | viability, T/C (second compound 1 µM, first compound 0.0949 µM) 48.1% | viability, T/C (second compound 1 µM, first compound 0.3 µM) 37.2% | viability, T/C (second compound 3.16 µM, first compound 0.000949 µM) 86.8% | viability, T/C (second compound 3.16 µM, first compound 0.003 µM) 65.8% | viability, T/C (second compound 3.16 µM, first compound 0.00949 µM) 54.1% | viability, T/C (second compound 3.16 µM, first compound 0.03 µM) 51.5% | viability, T/C (second compound 3.16 µM, first compound 0.0949 µM) 45.1% | viability, T/C (second compound 3.16 µM, first compound 0.3 µM) 43.6% | viability, T/C (second compound 10 µM, first compound 0.000949 µM) 83.1% | viability, T/C (second compound 10 µM, first compound 0.003 µM) 56.8% | viability, T/C (second compound 10 µM, first compound 0.00949 µM) 56.8% | viability, T/C (second compound 10 µM, first compound 0.03 µM) 49% | viability, T/C (second compound 10 µM, first compound 0.0949 µM) 51.1% | viability, T/C (second compound 10 µM, first compound 0.3 µM) 42.2%
19.3 nM: IC50 [5]
24.4 nM: IC50 [4]
4.37 nM: IC50 [2]
15.2 nM: IC50 [3]

O=C(c1cc(Cc2n[nH]c(=O)c3ccccc23)ccc1F)N1CCN(C(=O)C2CC2)CC1
inactive: viability, T/C (compound 0.0316 µM) 84.5% and 107% | viability, T/C (compound 0.1 µM) 97.1% and 103% | viability, T/C (compound 0.316 µM) 86.5% and 98.2% | viability, T/C (compound 1 µM) 93.8% and 106% | viability, T/C (compound 3.16 µM) 85.7% and 85.5% | viability, T/C (compound 10 µM) 65.5% and 74.2%
> 10000 nM: IC50 (curve of compound)

COc1cc(Nc2ncc3c(n2)-c2ccc(Cl)cc2C(c2c(F)cccc2OC)=NC3)ccc1C(=O)O + NC1CCC(NC2CC2c2ccccc2)CC1
201 nM: IC50 [3]
229 nM: IC50 [4] | IC50 [5]
172 nM: IC50 [2]
inactive: viability, T/C (second compound 0.1 µM, first compound 0.00316 µM) 87.8% | viability, T/C (second compound 0.1 µM, first compound 0.01 µM) 80.6% | viability, T/C [6] 81.6% | viability, T/C [7] 73.5% | viability, T/C [8] 38.9% | viability, T/C (second compound 0.316 µM, first compound 0.00316 µM) 96.4% | viability, T/C (second compound 0.316 µM, first compound 0.01 µM) 86.7% | viability, T/C [12] 79.8% | viability, T/C [13] 61.6% | viability, T/C [14] 36.6% | viability, T/C (second compound 1 µM, first compound 0.00316 µM) 104% | viability, T/C (second compound 1 µM, first compound 0.01 µM) 87.6% | viability, T/C [18] 91.4% | viability, T/C [19] 71% | viability, T/C [20] 36.2% | viability, T/C (second compound 3.16 µM, first compound 0.00316 µM) 110% | viability, T/C (second compound 3.16 µM, first compound 0.01 µM) 94.1% | viability, T/C [24] 94.4% | viability, T/C [25] 83.7% | viability, T/C [26] 36.9% | viability, T/C (second compound 10 µM, first compound 0.00316 µM) 108% | viability, T/C (second compound 10 µM, first compound 0.01 µM) 85.3% | viability, T/C [30] 89.9% | viability, T/C [31] 83.7% | viability, T/C [32] 37.1%
218 nM: IC50 [1]
active: viability, T/C [9] 6.3% | viability, T/C [15] 5.23% | viability, T/C [21] 5.15% | viability, T/C [27] 4.29% | viability, T/C [33] 2.91%

CCc1c2c(nc3ccc(O)cc13)-c1cc3c(c(=O)n1C2)COC(=O)[C@]3(O)CC
< 0.949 nM and 0.999 nM: IC50 (curve of compound)
active: viability, T/C (compound 0.0949 µM) 9.01% and 6.61% | viability, T/C (compound 0.3 µM) 4.04% and 3.45%
inactive: viability, T/C (compound 0.000949 µM) 46.8% and 51.2% | viability, T/C (compound 0.003 µM) 28.6% and 31% | viability, T/C (compound 0.00949 µM) 21.1% and 17.5% | viability, T/C (compound 0.03 µM) 12.4% and 14.2%

Cn1ncnc1C1c2n[nH]c(=O)c3cc(F)cc(c23)NC1c1ccc(F)cc1 (configuration not stated)
> 100 nM: IC50 (curve of compound)
inactive: viability, T/C (compound 0.000316 µM) 97.7% and 106% | viability, T/C (compound 0.001 µM) 104% and 106% | viability, T/C (compound 0.00316 µM) 87.8% and 95.8% | viability, T/C (compound 0.01 µM) 93.7% and 109% | viability, T/C (compound 0.0316 µM) 93.5% and 93.3% | viability, T/C (compound 0.1 µM) 79.6% and 91.1%

Nc1ccn(C2OC(CO)C(O)C2(F)F)c(=O)n1 (configuration not stated)
2.05 nM and 1.79 nM: IC50 (curve of compound)
inactive: viability, T/C (compound 0.000949 µM) 64.8% and 61.2% | viability, T/C (compound 0.003 µM) 42.9% and 39.4% | viability, T/C (compound 0.00949 µM) 35.1% and 35% | viability, T/C (compound 0.03 µM) 37.9% and 33.9% | viability, T/C (compound 0.0949 µM) 36.3% and 30.8% | viability, T/C (compound 0.3 µM) 32.1% and 25.6%

O=C(c1cc(Cc2n[nH]c(=O)c3ccccc23)ccc1F)N1CCN(C(=O)C2CC2)CC1 + NC1CC1c1ccc(-c2cccc(O)c2)cc1
inactive: viability, T/C [6] 112% | viability, T/C [7] 121% | viability, T/C [8] 114% | viability, T/C [9] 107% | viability, T/C [10] 92.6% | viability, T/C [11] 98.6% | viability, T/C [12] 109% | viability, T/C [13] 111% | viability, T/C [14] 124% | viability, T/C [15] 99% | viability, T/C [16] 95.2% | viability, T/C [17] 79.5% | viability, T/C [18] 102% | viability, T/C [19] 121% | viability, T/C [20] 134% | viability, T/C [21] 102% | viability, T/C [22] 92.1% | viability, T/C [23] 86% | viability, T/C [24] 114% | viability, T/C [25] 107% | viability, T/C [26] 122% | viability, T/C [27] 102% | viability, T/C [28] 106% | viability, T/C [29] 127% | viability, T/C [30] 111% | viability, T/C [31] 94.3% | viability, T/C [32] 110% | viability, T/C [33] 107% | viability, T/C [34] 106% | viability, T/C [35] 91.8%
> 10000 nM: IC50 [1] | IC50 [2] | IC50 [3] | IC50 [4] | IC50 [5]

Nc1ccccc1NC(=O)c1ccc(CNC(=O)OCc2cccnc2)cc1
151 nM and 132 nM: IC50 (curve of compound)
inactive: viability, T/C (compound 0.00949 µM) 100% and 75.3% | viability, T/C (compound 0.03 µM) 101% and 76.5% | viability, T/C (compound 0.0949 µM) 68.7% and 63.2% | viability, T/C (compound 0.3 µM) 21.4% and 17.3%
active: viability, T/C (compound 0.949 µM) 1.46% and 1.45% | viability, T/C (compound 3 µM) 0.48% and 0.84%

CC1(C)CCC(CN2CCN(c3ccc(C(=O)NS(=O)(=O)c4ccc(NCC5CCOCC5)c([N+](=O)[O-])c4)c(Oc4cnc5[nH]ccc5c4)c3)CC2)=C(c2ccc(Cl)cc2)C1
active: viability, T/C (compound 10 µM) 3.78% and 4.3%
inactive: viability, T/C (compound 0.0316 µM) 87% and 94.2% | viability, T/C (compound 0.1 µM) 98.5% and 93.8% | viability, T/C (compound 0.316 µM) 91.7% and 89.7% | viability, T/C (compound 1 µM) 96.8% and 84.2% | viability, T/C (compound 3.16 µM) 36.5% and 50.3%
2410 nM and 3200 nM: IC50 (curve of compound)
